Key:
Test in all cases: relative viability (nuclei count vs DMSO), 5 days (fraction); higher = more cells survive
Docetaxel = compound: CC(=O)O[C@@]12CO[C@@H]1C[C@H](O)[C@@]1(C)C(=O)[C@H](O)C3=C(C)[C@@H](OC(=O)[C@H](O)[C@@H](NC(=O)OC(C)(C)C)c4ccccc4)C[C@@](O)([C@@H](OC(=O)c4ccccc4)[C@H]21)C3(C)C [Docetaxel]
Method in brief: (§1)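 For viability, nuclei in each treated well were divided by nuclei in vehicle wells and the median across plates was taken. Lung cancer cell lines in 1536-well plates were pinned with five library-drug doses (not always all listed) spaced by √10, cultured 5 days without medium change, and imaged at 4× after Hoechst staining, with plates passing only at control CV below 25% and at least one doubling.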

Tivozanib = compound: COc1cc2nccc(Oc3ccc(NC(=O)Nc4cc(C)on4)c(Cl)c3)c2cc1OC [Tivozanib]
Method in brief: as §1

[1] = compound: Cc1cnc(-c2cnc(NCCNc3ccc(C#N)cn3)nc2-c2ccc(Cl)cc2Cl)[nH]1
Method in brief: as §1

JQ1 = compound: Cc1sc2c(c1C)C(c1ccc(Cl)cc1)=N[C@@H](CC(=O)OC(C)(C)C)c1nnc(C)n1-2 [JQ1]
Method in brief: as §1

Cytarabine = compound: Nc1ccn([C@@H]2O[C@H](CO)[C@@H](O)[C@@H]2O)c(=O)n1 [Cytarabine]
Method in brief: as §1

CPI-613 = compound: O=C(O)CCCCC(CCSCc1ccccc1)SCc1ccccc1 [CPI-613]
Method in brief: as §1

Pimozide = compound: O=c1[nH]c2ccccc2n1C1CCN(CCCC(c2ccc(F)cc2)c2ccc(F)cc2)CC1 [Pimozide]
Method in brief: as §1

Cell Line	relative viability (Docetaxel; 0.0002 µM)	relative viability (Docetaxel; 0.000632 µM)	relative viability (Docetaxel; 0.002 µM)	relative viability (Docetaxel; 0.006325 µM)	relative viability (Docetaxel; 0.02 µM)	relative viability (Tivozanib; 0.005 µM)	relative viability (Tivozanib; 0.01581 µM)	relative viability (Tivozanib; 0.05 µM)	relative viability (Tivozanib; 0.1581 µM)	relative viability (Tivozanib; 0.5 µM)	relative viability ([1]; 0.08 µM)	relative viability ([1]; 0.8 µM)	relative viability ([1]; 2.53 µM)	relative viability (JQ1; 0.04 µM)	relative viability (JQ1; 0.1265 µM)	relative viability (JQ1; 0.4 µM)	relative viability (JQ1; 1.265 µM)	relative viability (JQ1; 4 µM)	relative viability (Cytarabine; 0.005 µM)	relative viability (Cytarabine; 0.01581 µM)	relative viability (Cytarabine; 0.05 µM)	relative viability (Cytarabine; 0.1581 µM)	relative viability (Cytarabine; 0.5 µM)	relative viability (CPI-613; 5 µM)	relative viability (CPI-613; 15.81 µM)	relative viability (CPI-613; 50 µM)	relative viability (CPI-613; 158.11 µM)	relative viability (CPI-613; 500 µM)	relative viability (Pimozide; 0.08 µM)	relative viability (Pimozide; 0.253 µM)	relative viability (Pimozide; 0.8 µM)	relative viability (Pimozide; 2.53 µM)	relative viability (Pimozide; 8 µM)	relative viability ([1]; 0.253 µM)
201T	0.977	0.963	0.657	0.469	0.369	1.01	1.01	1.03	0.912	0.991	1.01	0.966	0.992	0.97	0.561	0.865	0.458	0.386	0.981	1.03	0.977	0.873	0.787	0.97	0.909	0.968	0.756	0.862	0.98	0.977	0.965	0.936	0.832	–
A549	0.914	0.68	0.0907	0.0644	0.0347	0.939	0.99	0.994	0.942	0.944	1.06	0.945	0.958	0.953	0.912	0.909	0.686	0.363	0.861	0.682	0.391	0.101	0.0441	0.973	0.911	0.978	0.624	0.647	0.96	0.89	0.981	0.952	0.874	0.957
A-427	0.931	0.952	0.439	0.281	0.171	0.98	1	1.03	0.902	0.833	1.04	0.959	0.948	0.902	0.879	0.91	0.653	0.504	0.823	0.449	0.329	0.214	0.204	1	0.898	0.939	0.772	0.157	0.952	0.967	0.94	0.882	0.845	0.852
ABC-1	0.853	0.817	0.472	0.343	0.24	0.849	0.919	1	0.793	0.412	0.881	0.896	0.904	0.947	0.657	0.691	0.572	0.444	0.907	0.883	0.808	0.732	0.582	1.05	0.802	1.04	0.469	0.226	0.811	1.05	0.959	0.897	0.698	0.682
BEN	0.951	1.01	0.593	0.291	0.198	0.922	1.05	1.02	–	0.889	1.05	0.933	0.984	0.809	0.848	0.594	0.44	0.387	0.892	0.794	0.617	0.473	0.335	0.988	0.843	0.96	0.799	0.811	0.96	1.07	0.975	0.925	1.04	0.991
CAL-12T	0.791	0.418	0.302	0.21	0.178	0.857	0.941	0.994	0.698	0.959	1.03	0.899	0.927	0.867	0.818	0.798	0.321	0.293	0.983	0.909	0.789	0.397	0.255	0.877	0.829	0.822	0.423	0.235	0.951	0.936	0.909	0.867	0.832	0.933
COR-L23	0.963	0.904	0.514	0.184	0.141	1.01	0.989	1.06	1.09	0.841	1.08	1.04	0.934	0.965	0.848	1.02	0.54	0.549	1.06	0.874	0.656	0.234	0.172	1	0.946	1.03	0.415	0.0149	1.08	1.03	0.949	0.981	0.912	0.897
COR-L 105	0.86	0.811	0.536	0.418	0.302	0.901	0.914	0.93	0.843	0.859	0.991	0.868	0.563	0.684	0.607	0.38	0.352	0.33	0.905	0.81	0.627	0.448	0.386	0.853	0.872	0.839	0.364	0.29	–	1.1	0.907	0.862	0.838	0.887
Calu-6	1.01	0.892	0.28	0.157	0.109	0.955	1.02	1.04	1.08	0.943	1	0.969	0.908	0.951	0.804	0.933	0.593	0.425	0.93	0.865	0.714	0.462	0.313	0.978	0.999	0.913	0.722	0.545	1.05	1.01	0.974	0.991	0.897	0.951
